Like-named read-outs stand apart in the source and are kept apart here.
Legend:
PC3 cells [1] = experiment: Transwell cell migration assay, PC3; format: cell-based, human; settings: PC3, 24 h; desmopressin 1 nM and 1 μM; 5 nM docetaxel in combination
Procedure: (§1) The migration of cells was measured using transwell insert plates (BD Biosciences, Bedford Mass.) according to the manufacture's protocol. Cells were subjected to 24 h of serum deprivation in DMEM/F12 supplemented with FBS. PC3 (5×10^4) cells were plated onto filters in 8.0-μm transwell insert plates and treated with these compounds, desmopressin (1 nM, 1 μM) and 5 nM docetaxel, in serum-free medium. The lower chamber also contained 10% FBS. Cells were allowed to migrate for 24 h. After the treatment, cells remaining on the top surfaces of the filter were removed using cotton swabs. The migrated cells that are attached to the lower surface of the filter were fixed in 4% formaldehyde at room temperature for 30 min, and then stained with crystal violet for 20 min. The migrated cells from random fields were chosen and counted using the computer-based microscopy imaging system. For the invasion assay, the same procedures were performed as described in the migration assay, except that the cells were plated onto 24-well matrigel-coated transwell plates (BD Biosciences, Bedford Mass.). The experiments were repeated 2 times in duplicates and statistical analysis performed.

PC3 cells [2] = settings: for body weight: during each study
Procedure: The mice were housed and maintained in laminar flow cabinets under specific pathogen-free conditions in facilities approved by the University of Toronto Animal Research Ethics Board and in accordance with their regulations and standards by the Canadian Council on Animal Care (CCAC). Cells (1×10^6 PC3 cells with 100 μl martrigel solution (BD Biosciences, CA, USA)) were inoculated subcutaneously (sc) into 6-8 week-old male nude mice (Harlan Sprague Dawley, Inc.). After 14 days, the developing tumors were measured and mice randomly assigned to different treatment groups. Tumor volumes were determined by measurement of tumor length (L) and width (W) with a caliper and calculated according to the formula: V=(L×W^2)(π/6) twice a week. A tumor volume in the range of 100 mm^3 was required for a given mouse to be included. Using the xenograft model, tumor growth was determined for the control and each treatment mice. Mice were randomized into four groups; control (n=15), desmopressin alone (n=15), docetaxel alone (n=10) and desmopressin in combination with docetaxel (n=10). Control animals received only the saline vehicle. Desmopressin from Ferring Pharmaceuticals (Ferring Inc, CA, USA) was administrated in 2 doses, 0 h and 24 h. Mice received desmopressin intravenously in the saline at a final dose of 2 μg/ml/body weight (50 ng/0.3 ml saline dose). Mice were administrated docetaxel at a dose of 5 mg/kg intravenously as 3 weekly cycles. Desmopressin was administrated in 2 doses, 30 min prior to and 24 h after the administration of docetaxel. The animals that were administrated docetaxel or desmopressin in combination with docetaxel were sacrificed 35 days after cell inoculation. Control and desmopressin mice were monitored until tumor volume was approximately 1500 mm3 or day 49, whichever earlier, in order to evaluate antitumor effect of desmopressin in vivo study.
All experiments were performed in triplicates. The date represented mean±the standard error of the mean. Statistical analysis was done by Student's t test at a significance level of P<0.05. Analyses of the in vivo results were performed using either Student's t-testing or repeated measures one-way ANOVA techniques.

PC3 cells [3] = experiment: Matrigel invasion assay, PC3; format: cell-based, human; settings: 5 nM docetaxel, desmopressin 1 nM and 1 uM
Procedure: as §1

DU145 cells [4] = experiment: Wound healing assay, DU145; format: cell-based; settings: for effect on migration (wound closure) compared to control: 10 nM DTX alone, Desmopressin alone
Procedure: The motility inhibitory potential of desmopressin alone and/or in combination with docetaxel was accessed by wound healing assay according to previously described protocol^49, 50. DU145 cell were plated on 24-well plates at a concentration of 50,000 cells per well and were allowed to grow until they reached 90-100% confluence. After incubating the cells with 1 mg/L Mitomycin C (Sigma©) for 1 hour, a vertical scratch across each well was created; floating cells removed and cell media or media with treatment solutions were added. Images were obtained at zero-time point and after 24 hours of treatment. A computer-based microscopy imaging system with X200 magnification (Axiovision©) was used to measure wound healing of each well. Each experiment was carried out in duplicates and repeated three times

[5] = test system: pro-uPA, active uPA, uPAR, MMP-2 and MMP-9 in PC3 cells; experiment: Western blot of uPA-MMP pathway, PC3; format: cell-based, human
Procedure: (§2) Protein lysates from the desmopressin monotherapy dose response study (100 pM-1 uM), desmopressin monotherapy time point study (1 uM, 0-48 h) and combination study and concentrated media employed for Western blot analysis, were prepared as previously described.^14 The proteins were subjected to 10-12% SDS-PAGE and electrophoretically transferred onto a PVDF membrane at 100V/300 mA overnight using a semidry transfer apparatus (Bio-Rad Laboratories, Hercules, Calif.). After activation in methanol (100%), blots were incubated for 60 mins at room temperature in TBST containing 5% skimmed milk. After washing, the membranes were incubated with primary antibodies against Bax, bcl-2, p21 (waf1/cip1), p27 (kip1), cdk2, cdk4, uPA, uPAR, MMP-2 and MMP-9 (1:100-200, Santacruz Biotechnology, Santacruz, Calif., USA). After incubation with respective primary antibody, the membrane was washed with TBST 3 times for 5 min, then incubated with appropriate secondary antibody for 1 h at room temperature and washed with TBST 3 times for 5 min. Protein detection was performed with enhanced chemiluminescence Western blotting regents (Amersham Pharmacia Biotech, Buckinghamshire, UK).

[6] = test system: cyclin A, cyclin B, CDK2, CDK4, p21(waf1/cip1), p27(kip1), Bax, Bcl-2, PARP, Caspase 3 in PC3 cells; experiment: Western blot of cell cycle and apoptosis proteins, PC3; format: cell-based, human
Procedure: as §2

PC3 cells [7] = experiment: Flow cytometry cell cycle analysis (BrdU labeling), PC3; format: cell-based, human
Procedure: To analyze cell cycle profiles, cells were plated at a density of 1×10^6 per 10 cm dish. Asynchronously growing cells were pulse labeled with […] bromodeoxyuridine (BrdU) for 2 h with or without prior treatment of the antioxidants at the end of 24 h. Cells were then harvested, fixed with 70% ethanol, treated with 0.1% HCl and heated for 10 min at 90° C. to expose the labeled DNA. Cells were stained with anti-BrdU-conjugated FITC (Becton-Dickinson) and counterstained with propidium iodide, and then allowed to incubate for 30 mins on ice. Samples were filtered through a nylon mesh. Cell cycle analysis was carried out on the FACS Calibur flow cytometer using the Cell Quest Pro software package (Becton-Dickinson, CA, USA). The experiments were repeated 3 times in triplicates and statistical analysis performed as mentioned below.

DU145 cells [8] = experiment: DU145 xenograft model in athymic nude mice; format: in vivo; settings: day 55 post inoculation
Procedure: 6-week old male athymic nude mice (Charles river, QC, Canada) were used to evaluate the effect of combination therapy on DU145 tumor growth in vivo. […] Following 2 weeks of housing, 1×10^6 DU145 cells per animal in 100 μL matrigel solution (BD Bioscience, CA, USA) were inoculated subcutaneously, according to procedure described by Fridman et al (51). After 14 days following inoculation, body weight and tumor size were measured, and mice were randomly assigned to different treatment groups. Groups included control (sham treatments), DTX (5 mg/kg body weight) intraperitoneally, Desmopressin (2 μg/ml/body weight) intravenously 30 minutes prior to IP injection and 24 hours later or combination therapy (n=4 per group). Each group received treatment once every other week for a total of 3 treatments. Animal weight and tumor measurements were assessed regularly. Tumor size was calculated by length (L) and width (W) measured with caliper according to the following formula: V=(L×W2) ( […] /6).
Two weeks following the last treatment, mice were euthanized; tumors were excised, measured directly with caliper and sent for histological analysis.
Statistics: Tumor volume calculated during the treatment period were compared using repeated measures one-way ANOVA test (SPSS©). Final tumor volume and body weight measurements were compared separately using one-way ANOVA test.

PC3 cells [9] = experiment: MTS cell proliferation assay, PC3; format: cell-based, human; settings: PC3, 72 h; docetaxel 0-100 nM; desmopressin 1 nM-1 μM; combination desmopressin (1 nM, 1 μM) and 5 nM docetaxel
Procedure: PC3 human prostate carcinoma cells were obtained from the American Type Culture Collection (Rockville, Md., USA). Cells were cultured in DMEM/F12 medium (Invitrogen, ON, Canada) with 10% fetal bovine serum (FBS; Gibco, NY, USA), 100 IU/ml penicillin, 100 μg/ml streptomycin and 0.3 mg/ml 1-glutamine, and maintained at 37° C. in a humidified atmosphere of 5% CO2 in air. Cells were grown to 80% confluence in 10-cm tissue culture plates.
Cell proliferation was determined by MTS assay as previously described.^14 Cells (5×10^3/well) were plated using 96 well plates. After cultivation for 24 h, a range of concentration of desmopressin (100 pM-1 μM) and/or Docetaxel (1 nM-100 nM) were added and culture continued for up to 72 h. Cell viability was assessed by incubation with MTS for 2 hours and resulting absorbance measured at 595 nm using an ELISA plate reader. In the combination studies, varying dose of each agents were tested. The experiments were repeated 3 times in triplicates and statistical analysis performed.

[10] = dose response study 100 pM-1 uM

In the case of `NC(=O)CC[C@@H]1NC(=O)[C@H](Cc2ccccc2)NC(=O)[C@H](Cc2ccc(O)cc2)NC(=O)CCSSC[C@@H](C(=O)N2CCC[C@H]2C(=O)N[C@H](CCCN=C(N)N)C(=O)NCC(N)=O)NC(=O)[C@H](CC(N)=O)NC1=O` [desmopressin, 1-desamino-8-D-arginine vasopressin], the “cell migration, transwell plates” value (PC3 cells [1]) is reported as “significantly inhibited cell migration”, the mean tumor volume (PC3 cells [2]; PC3 xenograft, nude mice, day 35 post tumor inoculation, desmopressin 2 μg/ml/body weight i.v.) is reported as 642 mm3 and the body weight (PC3 cells [2]; PC3 xenograft, nude mice) is reported as “consistently maintained their body weight”. The tolerability of treatment (PC3 cells [2]; PC3 xenograft, nude mice, intravenous injection) was “well tolerated”, the “tumor growth / tumor size versus control (and docetaxel alone)” value (PC3 cells [2]; PC3 xenograft, nude mice, docetaxel 5 mg/kg i.v., desmopressin 2 μg/ml/body weight i.v.) was “significantly slower rate of tumor development” and the “cell invasion, matrigel invasion assay” value (PC3 cells [3]) was “significantly inhibition of cell invasion”. The “effect on migration (wound closure) compared to control” value (DU145 cells [4]; DU145, 24 hours) was “no statistical significant effect”, the “expression of MMP-2” value [5, 10] was “reduced in a dose dependent manner” and the “expression of MMP-9” value [5, 10] was “reduced in a dose dependent manner”. The “expression of active uPA” value [5, 10] was “reduced in a dose dependent manner”, the “expression of precursor pro-uPA” value [5, 10] was “reduced in a dose dependent manner” and the “expression of uPAR” value [5, 10] was “unaltered”. The “expression of MMP-2” value ([5]; time point study, 1 μM, 0-48 h) was “reduced in a time dependent manner”, the “expression of MMP-9” value ([5]; time point study, 1 μM, 0-48 h) was “reduced in a time dependent manner” and the “expression of uPA” value ([5]; time point study, 1 μM, 0-48 h) was “reduced in a time dependent manner”. For the same compound, the “expression of uPAR” value ([5]; time point study, 1 μM, 0-48 h) was “not altered”, the “expression of (total) Caspase 3” value [6] was “did not reduce the expression” and the “expression of PARP” value [6] was “did not reduce the expression”. The “expression of bcl-2” value [6] was “did not reduce the expression”, the cell cycle distribution (PC3 cells [7]; monotherapy) was “did not alter cell cycle distribution” and the “average tumor size, final direct measurement of excised tumors” value (DU145 cells [8]) was 1597±681 mm3. The “cell proliferation / cell viability (MTS), relative to untreated control cells” value (PC3 cells [9]) was “significantly reduced cell proliferation”.

`CC(=O)O[C@@]12CO[C@@H]1C[C@H](O)[C@@]1(C)C(=O)[C@H](O)C3=C(C)[C@@H](OC(=O)[C@H](O)[C@@H](NC(=O)OC(C)(C)C)c4ccccc4)C[C@@](O)([C@@H](OC(=O)c4ccccc4)[C@H]21)C3(C)C` [docetaxel] was tested, and the body weight (PC3 cells [2]; PC3 xenograft, nude mice) was “consistently maintained their body weight”, the tolerability of treatment (PC3 cells [2]; mouse, in vivo, iv) was “well tolerated” and the “cell invasion, matrigel invasion assay” value (PC3 cells [3]) was “significantly inhibition of cell invasion”. The “effect on migration (wound closure) compared to control” value (DU145 cells [4]; DU145, 24 hours) was “migration inhibitory effect”, the “in vitro wound closure” value (DU145 cells [4]; DU145, 24 hours, DTX 10 nM, alone or combined with 1 μm Desmopressin) was 48.9% and the “cell kill in wound healing assay” value (DU145 cells [4]; DU145, DTX concentration of 100 μM) was “significant cell kill”. For the same compound, the “proportion of cells in G2 phase” value (PC3 cells [7]; 5 nM docetaxel, alone or with 1 nM/1 μM desmopressin) was “significant increase in the proportion of cells in G2 phase”, the “average tumor size, final direct measurement of excised tumors” value (DU145 cells [8]) was 1330±550 mm3 and the “cell proliferation / cell viability (MTS), relative to untreated control cells” value (PC3 cells [9]) was “decreased cell viability in a dose dependent manner”.

Source: patent US10500248B2, “Method for treating cancer” (SUNNYBROOK RESEARCH INSTITUTE, priority 2015, dated 2019)
